Where a SMILES comes first, the peptide text is derived from it. Bridges are numbered along the chain shown (N, C = ends). [ ]: non-standard residue; d: D form. The star is where a group is joined. hPhe(3-Cl-4-CF3) = N[C@@H](CCc1ccc(C(F)(F)F)c(Cl)c1)C(=O)O; NPrPhe(4-CF3) = CCCN[C@@H](Cc1ccc(C(F)(F)F)cc1)C(=O)O; NPrPhe(4-Me) = CCCN[C@@H](Cc1ccc(C)cc1)C(=O)O; NMeGly(cPent) = CN[C@H](C(=O)O)C1CCCC1; Pro(4,4-F2) = O=C(O)[C@@H]1CC(F)(F)CN1; NMeD = CN[C@@H](CC(=O)O)C(=O)O; NMeL = CN[C@@H](CC(C)C)C(=O)O; Morpholide = C1CN(*)CCO1; Ac5c = NC1(C(=O)O)CCCC1; Ac4c = NC1(C(=O)O)CCC1; NEtG = CCNCC(=O)O; Sar = CNCC(=O)O
Key:
[1] = biological target: GDP-bound NRAS wild-type protein (Homo sapiens, UniProt P01111); test: Binding to NRAS by surface plasmon resonance (SPR), Single Cycle Kinetics; settings: for NRAS/KRAS (ratio of KD value with respect to NRAS to KD value with respect to KRAS): GDP-bound NRAS wild-type vs GDP-bound KRAS wild-type
Sequence of GDP-bound NRAS wild-type protein (P01111 whole entry): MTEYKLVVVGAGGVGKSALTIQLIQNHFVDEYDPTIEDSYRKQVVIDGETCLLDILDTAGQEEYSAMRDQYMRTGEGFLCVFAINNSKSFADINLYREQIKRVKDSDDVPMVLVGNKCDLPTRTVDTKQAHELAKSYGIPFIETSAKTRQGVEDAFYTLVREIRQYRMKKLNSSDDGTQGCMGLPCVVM

[2] = biological target: GDP-bound HRAS wild-type protein (Homo sapiens, UniProt P01112); test: Binding to HRAS by surface plasmon resonance (SPR), Single Cycle Kinetics; settings: for HRAS/KRAS (ratio of KD value with respect to HRAS to KD value with respect to KRAS): GDP-bound HRAS wild-type vs GDP-bound KRAS wild-type
Sequence of GDP-bound HRAS wild-type protein (P01112 whole entry): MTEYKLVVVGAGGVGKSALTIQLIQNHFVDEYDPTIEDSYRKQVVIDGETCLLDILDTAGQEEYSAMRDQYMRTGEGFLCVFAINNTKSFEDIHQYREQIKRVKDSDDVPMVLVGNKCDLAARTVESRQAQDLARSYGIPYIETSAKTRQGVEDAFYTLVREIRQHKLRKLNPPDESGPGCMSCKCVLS

SMILES: C#CCN1CC(=O)N(C)[C@H]2C/C=C\CCN(C2=O)[C@@H](Cc2ccc(C)cc2)C(=O)N(C)CC(=O)N[C@@H](CCc2cc(F)c(C(F)(F)F)c(F)c2)C(=O)N2C[C@H](OCC)C[C@H]2C(=O)NC2(CC(C)(C)C2)C(=O)N(C)[C@@H](C2CCCC2)C(=O)N(C)[C@H](C(=O)N(C)C)CC(=O)N(C)[C@@H](CCC)C(=O)N[C@@H]([C@@H](C)CC)C1=O [PP2095]
- NRAS/KRAS (ratio of KD value with respect to NRAS to KD value with respect to KRAS) ([1]; SPR): A (a compound having 10 or more and less than 20 is denoted as A)
- HRAS/KRAS (ratio of KD value with respect to HRAS to KD value with respect to KRAS) ([2]; SPR): A (a compound having 10 or more and less than 20 is denoted as A)

SMILES: CCC[C@H]1C(=O)N[C@@H]([C@@H](C)CC)C(=O)N(C2CC2)CC(=O)N(C)[C@H]2C/C=C\CCN(C2=O)[C@@H](Cc2ccc(C)cc2)C(=O)N(C)CC(=O)N[C@@H](CCc2ccc(Cl)c(Cl)c2)C(=O)N2C[C@H](OCC)C[C@H]2C(=O)NC2(CC(C)(C)C2)C(=O)N(C)[C@@H](C2CCCC2)C(=O)N(C)[C@H](C(=O)N(C)C)CC(=O)N1C [PP2559]
- NRAS/KRAS (ratio of KD value with respect to GDP-bound NRAS wild-type protein to KD value with respect to KRAS) ([1]; KD ratio NRAS/KRAS, class symbols): A (a compound having 10 or more and less than 20 is denoted as A)
- HRAS/KRAS (ratio of KD value with respect to GDP-bound HRAS wild-type protein to KD value with respect to KRAS) ([2]; KD ratio HRAS/KRAS, class symbols): A (a compound having 10 or more and less than 20 is denoted as A)

SMILES: CCCN1C(=O)CN(C)C(=O)CN(C)C(=O)[C@H]([C@@H](C)CC)NC(=O)[C@H](CC(C)C)N(C)C(=O)C[C@@H](C(=O)N(C)C)N(C)C(=O)[C@H](C2CCCC2)N(C)C(=O)C2(CCC2)NC(=O)[C@@H]2CC(F)(F)CN2C(=O)[C@H](CCc2ccc(C(F)(F)F)c(Cl)c2)NC(=O)CN(C)C(=O)[C@@H]1Cc1ccc(C(F)(F)F)cc1 [PP0414] ([NMeL]I[Sar][Sar][NPrPhe(4-CF3)][Sar][hPhe(3-Cl-4-CF3)][Pro(4,4-F2)][Ac4c][NMeGly(cPent)][NMeD]-NMe2; lactam N-11)
- NRAS/KRAS (ratio of KD value with respect to GDP-bound NRAS wild-type protein to KD value with respect to KRAS) ([1]; KD ratio NRAS/KRAS, SPR): B (a compound having 3 or more and less than 10 is denoted as B)
- HRAS/KRAS (ratio of KD value with respect to GDP-bound HRAS wild-type protein to KD value with respect to KRAS) ([2]; KD ratio HRAS/KRAS, SPR): C (A compound having a KD ratio of 0.1 or more and less than 3 is denoted as C)

SMILES: CCCN1C(=O)CN(CC)C(=O)CN(C)C(=O)[C@H]([C@@H](C)CC)NC(=O)[C@H](CC(C)C)N(C)C(=O)C[C@@H](C(=O)N2CCOCC2)N(C)C(=O)[C@H](C2CCCC2)N(C)C(=O)C2(CCCC2)NC(=O)[C@@H]2CCCN2C(=O)[C@H](CCc2ccc(C(F)(F)F)c(Cl)c2)NC(=O)CN(C)C(=O)[C@@H]1Cc1ccc(C)cc1 [PP0065] ([NMeL]I[Sar][NEtG][NPrPhe(4-Me)][Sar][hPhe(3-Cl-4-CF3)]P[Ac5c][NMeGly(cPent)][NMeD]-Morpholide; lactam N-11)
- NRAS/KRAS (ratio of KD for GDP-bound NRAS wild-type to KD for KRAS) ([1]; KD ratio NRAS/KRAS, SPR): C (A compound having a KD ratio of 0.1 or more and less than 3 is denoted as C)
- HRAS/KRAS (ratio of KD for GDP-bound HRAS wild-type to KD for KRAS) ([2]; KD ratio HRAS/KRAS, SPR): C (A compound having a KD ratio of 0.1 or more and less than 3 is denoted as C)

SMILES: CCO[C@H](C)[C@@H]1NC(=O)[C@H](CC(C)C)N(C)C(=O)C[C@@H](C(=O)N(C)CC)N(C)C(=O)[C@H](C2CCCC2)N(C)C(=O)C2(CC(C)(C)C2)NC(=O)[C@@H]2C[C@H](C)CN2C(=O)[C@H](CCc2cc(F)c(C(F)(F)F)c(F)c2)NC(=O)CN(C)C(=O)[C@H](Cc2ccc(C)cc2)N2CC/C=C\C[C@@H](C2=O)N(C)C(=O)CN(C)C1=O [PP2414]
- NRAS/KRAS (ratio of KD value with respect to NRAS to KD value with respect to KRAS) ([1]; SPR): A (a compound having 10 or more and less than 20 is denoted as A)
- HRAS/KRAS (ratio of KD value with respect to HRAS to KD value with respect to KRAS) ([2]; SPR): A (a compound having 10 or more and less than 20 is denoted as A)

SMILES: C#CCN1CC(=O)N(C)[C@H]2C/C=C\CCN(C2=O)[C@@H](Cc2ccc(C(F)(F)F)cc2)C(=O)N(C)CC(=O)N[C@@H](CCc2cc(F)c(C(F)(F)F)c(F)c2)C(=O)N2C[C@H](OCC)C[C@H]2C(=O)NC2(CC(C)(C)C2)C(=O)N(C)[C@@H](C2CCCC2)C(=O)N(C)[C@H](C(=O)N(C)C)CC(=O)N(C)[C@@H](CCC)C(=O)N[C@@H]([C@@H](C)CC)C1=O [PP2103]
- NRAS/KRAS (ratio of KD value with respect to NRAS to KD value with respect to KRAS) ([1]; SPR): A (a compound having 10 or more and less than 20 is denoted as A)
- HRAS/KRAS (ratio of KD value with respect to HRAS to KD value with respect to KRAS) ([2]; SPR): A (a compound having 10 or more and less than 20 is denoted as A)

SMILES: CCOC[C@H]1C(=O)N[C@@H]([C@@H](C)CC)C(=O)N(C)CC(=O)N(C)[C@H]2C/C=C\CCN(C2=O)[C@@H](CC2CCC(F)(F)CC2)C(=O)N(C)CC(=O)N[C@@H](CCc2cc(F)c(C(F)(F)F)c(F)c2)C(=O)N2C[C@@H](C)C[C@H]2C(=O)NC2(CC(C)(C)C2)C(=O)N(C)[C@@H](C(CC)CC)C(=O)N(C)[C@H](C(=O)N(C)C)CC(=O)N1C [PP2462]
- NRAS/KRAS (ratio of KD value with respect to NRAS to KD value with respect to KRAS) ([1]; SPR): A (a compound having 10 or more and less than 20 is denoted as A)
- HRAS/KRAS (ratio of KD value with respect to HRAS to KD value with respect to KRAS) ([2]; SPR): A (a compound having 10 or more and less than 20 is denoted as A)

— US20250230193A1, “CYCLIC COMPOUND HAVING SELECTIVE KRAS INHIBITORY EFFECT ON HRAS AND NRAS” (CHUGAI SEIYAKU KABUSHIKI KAISHA, priority 2022, published 2025)
